# Test results reported in patent US20060034819A1, “Proteins and methods useful for assessing risk of cardiovascular disease” (UNITHER PHARMA, INC., priority 2002, published 2006).
# Legend:
# [1] = system: mutant DDAH; assay: fluorescence polarization immunoassay (FPIA) with ADMA-OG; type: binding, Human
# Description: Fluorescence Polarization Immunassay (FPIA) is another homogeneous solution phase immunoassay for small molecule analytes, which has the unique advantage that a positive signal is generated by competition. FPIA detects the difference between mutant DDAH-bound and free fluorescently-labelled ligand as the polarization of emitted light when excited by plane-polarized light. Small molecule ligands tumble so fast during the excited state that emitted light is nearly isotropic, whereas, the larger mutant DDAH-bound ligand hardly rotates at all during the excited state and therefore emits highly polarized or anisotropic light. Analyte is measured by its ability to compete with label for binding to mutant DDAH, and thereby lower the polarization of emitted light, and increase its intensity at certain angles relative to the incident light. […] Free ADMA is measured as a function of its concentration-dependent ability to compete with fluorescein-ADMA for binding to mutant DDAH thereby reducing polarized emission.
# ADMA is conjugated through its alpha-amino group to Oregon Green (OG) and purified by reversed phase HPLC. […] At 10^−10 M ADMA-OG, polarization is determined after equilibration with various concentrations of mutant DDAH ranging from 10^−10 M to 10^−6 M. The minimum value should be equivalent to that of the free conjugate. […]
# [2] = system: DDAH; conditions: DDAH as an ADMA sensor; binding affinity low; cited from earlier work
# [3] = system: NOS; conditions: LNMMA compared with ADMA; cited from earlier work
smiles,measurement,setting,value
"CN=C(NC)NCCC[C@H](N)C(=O)O [SDMA, symmetric dimethylarginine]",inhibition of polarization,[1]; concentration equivalent to 10^−7 M free ADMA,no detectable inhibition
same,Km,[2],> 100 µM
"CNC(=N)NCCC[C@H](N)C(=O)O [LNMMA, L,N-monomethylarginine]",potency as inhibitors of NOS,[3],equipotent
N=C(N)NCCC[C@H](N)C(=O)O [arginine],inhibition of polarization,[1]; 100-fold higher concentration than 10^−7 M free ADMA,no detectable inhibition
"CN(C)C(=N)NCCCC(N)C(=O)O (centres unmarked) [ADMA, asymmetric N,N-dimethyl arginine]",potency as inhibitors of NOS,[3],equipotent
